The term melting point denotes the temperature, or range, at which the solid turns liquid.

For `CC1(CCOC(=O)CCC(=O)Nc2ccc(Br)cn2)OCCO1` [Compound A43, 2-(2-methyl-1,3-dioxolan-2-yl)ethyl 4-[(5-bromo-2-pyridyl)amino]-4-oxo-butanoate], the melting point fell in the range of 97 to 98 °C.
Next, `O=C(CCC(=O)OCCCC(F)(F)F)Nc1ccc(Br)cn1`: 118 to 119 °C.

Values taken from patent US20140371070A1, “PLANT GROWTH REGULATING COMPOUNDS” (Syngenta Participations AG, priority 2011, published 2014).
